Measured values reported in the supplement of paper PMC9912026.

System: A375_aEGFR2
Assay: pERK immunofluorescence normalised to no-drug reference (=1); higher = more ERK phosphorylation (less pathway inhibition)
Details: drug treatment time 24 h, EGF time 8 h
Protocol: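 A375 CRISPRa-EGFR (A375_aEGFR2) or HT29 cells were treated with two-drug dose combinations (vemurafenib, LY3009120, cobimetinib) for 24 h, then stimulated with EGF (100 ng/mL) or mock medium for 8 h. pERK (T202/Y204) was measured by immunofluorescence as the cytosolic population average, normalised to an untreated no-drug reference of the block (=1). Averages of 2 technical replicates. A375 in 5% FBS, HT29 in 10% FBS.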

CCCS(=O)(=O)Nc1ccc(F)c(C(=O)c2c[nH]c3ncc(-c4ccc(Cl)cc4)cc23)c1F [Vemurafenib] + CNc1ncc2cc(-c3cc(NC(=O)NCCC(C)(C)C)c(F)cc3C)c(C)nc2n1 [LY3009120]
pERK immunofluorescence normalised
Details	EGF 0 ng/mL	EGF 100 ng/mL
drug A concentration 0 µM, drug B concentration 0.0001 µM	1.02	1.04
drug A concentration 0 µM, drug B concentration 0.000316228 µM	1.03	1.07
drug A concentration 0 µM, drug B concentration 0.001 µM	1.06	1.02
drug A concentration 0 µM, drug B concentration 0.00316228 µM	0.865	0.989
drug A concentration 0 µM, drug B concentration 0.01 µM	0.696	0.807
drug A concentration 0 µM, drug B concentration 0.0316228 µM	0.376	0.565
drug A concentration 0 µM, drug B concentration 0.1 µM	0.193	0.368
drug A concentration 0 µM, drug B concentration 0.316228 µM	0.157	0.264
drug A concentration 0 µM, drug B concentration 1 µM	0.149	0.175
drug A concentration 0 µM, drug B concentration 3.16228 µM	0.153	0.149
drug A concentration 0.000316228 µM, drug B concentration 0 µM	1.03	0.99
drug A concentration 0.000316228 µM, drug B concentration 0.0001 µM	1.03	0.996
drug A concentration 0.000316228 µM, drug B concentration 0.000316228 µM	1.03	1.02
drug A concentration 0.000316228 µM, drug B concentration 0.001 µM	0.876	0.959
drug A concentration 0.000316228 µM, drug B concentration 0.00316228 µM	0.793	0.849
drug A concentration 0.000316228 µM, drug B concentration 0.01 µM	0.488	0.648
drug A concentration 0.000316228 µM, drug B concentration 0.0316228 µM	0.263	0.454
drug A concentration 0.000316228 µM, drug B concentration 0.1 µM	0.168	0.312
drug A concentration 0.000316228 µM, drug B concentration 0.316228 µM	0.151	0.206
drug A concentration 0.000316228 µM, drug B concentration 1 µM	0.15	0.155
drug A concentration 0.000316228 µM, drug B concentration 3.16228 µM	0.15	0.14
drug A concentration 0.001 µM, drug B concentration 0 µM	1	1.02
drug A concentration 0.001 µM, drug B concentration 0.0001 µM	1.01	0.999
drug A concentration 0.001 µM, drug B concentration 0.000316228 µM	0.997	0.982
drug A concentration 0.001 µM, drug B concentration 0.001 µM	0.96	0.953
drug A concentration 0.001 µM, drug B concentration 0.00316228 µM	0.806	0.892
drug A concentration 0.001 µM, drug B concentration 0.01 µM	0.501	0.635
drug A concentration 0.001 µM, drug B concentration 0.0316228 µM	0.278	0.468
drug A concentration 0.001 µM, drug B concentration 0.1 µM	0.168	0.331
drug A concentration 0.001 µM, drug B concentration 0.316228 µM	0.148	0.215
drug A concentration 0.001 µM, drug B concentration 1 µM	0.15	0.156
drug A concentration 0.001 µM, drug B concentration 3.16228 µM	0.149	0.134
drug A concentration 0.00316228 µM, drug B concentration 0 µM	0.995	0.977
drug A concentration 0.00316228 µM, drug B concentration 0.0001 µM	1.05	0.996
drug A concentration 0.00316228 µM, drug B concentration 0.000316228 µM	0.961	1.04
drug A concentration 0.00316228 µM, drug B concentration 0.001 µM	0.922	0.953
drug A concentration 0.00316228 µM, drug B concentration 0.00316228 µM	0.781	0.836
drug A concentration 0.00316228 µM, drug B concentration 0.01 µM	0.534	0.641
drug A concentration 0.00316228 µM, drug B concentration 0.0316228 µM	0.27	0.456
drug A concentration 0.00316228 µM, drug B concentration 0.1 µM	0.167	0.305
drug A concentration 0.00316228 µM, drug B concentration 0.316228 µM	0.145	0.212
drug A concentration 0.00316228 µM, drug B concentration 1 µM	0.15	0.154
drug A concentration 0.00316228 µM, drug B concentration 3.16228 µM	0.149	0.139
drug A concentration 0.01 µM, drug B concentration 0 µM	0.897	0.969
drug A concentration 0.01 µM, drug B concentration 0.0001 µM	0.912	0.967
drug A concentration 0.01 µM, drug B concentration 0.000316228 µM	0.891	0.96
drug A concentration 0.01 µM, drug B concentration 0.001 µM	0.889	0.91
drug A concentration 0.01 µM, drug B concentration 0.00316228 µM	0.732	0.789
drug A concentration 0.01 µM, drug B concentration 0.01 µM	0.471	0.625
drug A concentration 0.01 µM, drug B concentration 0.0316228 µM	0.28	0.469
drug A concentration 0.01 µM, drug B concentration 0.1 µM	0.165	0.311
drug A concentration 0.01 µM, drug B concentration 0.316228 µM	0.15	0.205
drug A concentration 0.01 µM, drug B concentration 1 µM	0.153	0.157
drug A concentration 0.01 µM, drug B concentration 3.16228 µM	0.148	0.138
drug A concentration 0.0316228 µM, drug B concentration 0 µM	0.695	0.896
drug A concentration 0.0316228 µM, drug B concentration 0.0001 µM	0.759	0.9
drug A concentration 0.0316228 µM, drug B concentration 0.000316228 µM	0.727	0.935
drug A concentration 0.0316228 µM, drug B concentration 0.001 µM	0.745	0.852
drug A concentration 0.0316228 µM, drug B concentration 0.00316228 µM	0.669	0.768
drug A concentration 0.0316228 µM, drug B concentration 0.01 µM	0.457	0.635
drug A concentration 0.0316228 µM, drug B concentration 0.0316228 µM	0.251	0.454
drug A concentration 0.0316228 µM, drug B concentration 0.1 µM	0.166	0.319
drug A concentration 0.0316228 µM, drug B concentration 0.316228 µM	0.146	0.216
drug A concentration 0.0316228 µM, drug B concentration 1 µM	0.152	0.156
drug A concentration 0.0316228 µM, drug B concentration 3.16228 µM	0.15	0.138
drug A concentration 0.1 µM, drug B concentration 0 µM	0.453	0.761
drug A concentration 0.1 µM, drug B concentration 0.0001 µM	0.436	0.789
drug A concentration 0.1 µM, drug B concentration 0.000316228 µM	0.465	0.802
drug A concentration 0.1 µM, drug B concentration 0.001 µM	0.482	0.771
drug A concentration 0.1 µM, drug B concentration 0.00316228 µM	0.416	0.719
drug A concentration 0.1 µM, drug B concentration 0.01 µM	0.321	0.61
drug A concentration 0.1 µM, drug B concentration 0.0316228 µM	0.206	0.45
drug A concentration 0.1 µM, drug B concentration 0.1 µM	0.161	0.329
drug A concentration 0.1 µM, drug B concentration 0.316228 µM	0.152	0.229
drug A concentration 0.1 µM, drug B concentration 1 µM	0.151	0.161
drug A concentration 0.1 µM, drug B concentration 3.16228 µM	0.147	0.137
drug A concentration 0.316228 µM, drug B concentration 0 µM	0.252	0.767
drug A concentration 0.316228 µM, drug B concentration 0.0001 µM	0.262	0.764
drug A concentration 0.316228 µM, drug B concentration 0.000316228 µM	0.264	0.746
drug A concentration 0.316228 µM, drug B concentration 0.001 µM	0.292	0.721
drug A concentration 0.316228 µM, drug B concentration 0.00316228 µM	0.295	0.653
drug A concentration 0.316228 µM, drug B concentration 0.01 µM	0.266	0.579
drug A concentration 0.316228 µM, drug B concentration 0.0316228 µM	0.203	0.431
drug A concentration 0.316228 µM, drug B concentration 0.1 µM	0.158	0.293
drug A concentration 0.316228 µM, drug B concentration 0.316228 µM	0.146	0.19
drug A concentration 0.316228 µM, drug B concentration 1 µM	0.149	0.149
drug A concentration 0.316228 µM, drug B concentration 3.16228 µM	0.146	0.137
drug A concentration 1 µM, drug B concentration 0 µM	0.192	0.784
drug A concentration 1 µM, drug B concentration 0.0001 µM	0.185	0.755
drug A concentration 1 µM, drug B concentration 0.000316228 µM	0.191	0.728
drug A concentration 1 µM, drug B concentration 0.001 µM	0.204	0.725
drug A concentration 1 µM, drug B concentration 0.00316228 µM	0.211	0.678
drug A concentration 1 µM, drug B concentration 0.01 µM	0.201	0.598
drug A concentration 1 µM, drug B concentration 0.0316228 µM	0.184	0.467
drug A concentration 1 µM, drug B concentration 0.1 µM	0.159	0.308
drug A concentration 1 µM, drug B concentration 0.316228 µM	0.152	0.195
drug A concentration 1 µM, drug B concentration 1 µM	0.149	0.149
drug A concentration 1 µM, drug B concentration 3.16228 µM	0.152	0.137
drug A concentration 3.16228 µM, drug B concentration 0 µM	0.176	0.761
drug A concentration 3.16228 µM, drug B concentration 0.0001 µM	0.165	0.663
drug A concentration 3.16228 µM, drug B concentration 0.000316228 µM	0.172	0.678
drug A concentration 3.16228 µM, drug B concentration 0.001 µM	0.168	0.701
drug A concentration 3.16228 µM, drug B concentration 0.00316228 µM	0.171	0.649
drug A concentration 3.16228 µM, drug B concentration 0.01 µM	0.169	0.625
drug A concentration 3.16228 µM, drug B concentration 0.0316228 µM	0.165	0.508
drug A concentration 3.16228 µM, drug B concentration 0.1 µM	0.156	0.337
drug A concentration 3.16228 µM, drug B concentration 0.316228 µM	0.145	0.197
drug A concentration 3.16228 µM, drug B concentration 1 µM	0.147	0.15
drug A concentration 3.16228 µM, drug B concentration 3.16228 µM	0.15	0.156
drug A concentration 10 µM, drug B concentration 0 µM	0.164	0.668
drug A concentration 10 µM, drug B concentration 0.0001 µM	0.172	0.644
drug A concentration 10 µM, drug B concentration 0.000316228 µM	0.166	0.629
drug A concentration 10 µM, drug B concentration 0.001 µM	0.167	0.651
drug A concentration 10 µM, drug B concentration 0.00316228 µM	0.171	0.663
drug A concentration 10 µM, drug B concentration 0.01 µM	0.177	0.628
drug A concentration 10 µM, drug B concentration 0.0316228 µM	0.172	0.553
drug A concentration 10 µM, drug B concentration 0.1 µM	0.165	0.335
drug A concentration 10 µM, drug B concentration 0.316228 µM	0.166	0.228
drug A concentration 10 µM, drug B concentration 1 µM	0.157	0.177
drug A concentration 10 µM, drug B concentration 3.16228 µM	0.162	0.153
